Source: patent US8399681B2, “Substituted aminothiazolone indazoles as estrogen related receptor-alpha modulators” (Janssen Pharmaceutica NV, priority 2009, dated 2013)
pEC50: −log10 of the molar value.

Biological target: T1, ERR1 (also known as ERR-α or ERR-1) (Homo sapiens, UniProt P11474)
T1 sequence (P11474 193-421 limits assumed): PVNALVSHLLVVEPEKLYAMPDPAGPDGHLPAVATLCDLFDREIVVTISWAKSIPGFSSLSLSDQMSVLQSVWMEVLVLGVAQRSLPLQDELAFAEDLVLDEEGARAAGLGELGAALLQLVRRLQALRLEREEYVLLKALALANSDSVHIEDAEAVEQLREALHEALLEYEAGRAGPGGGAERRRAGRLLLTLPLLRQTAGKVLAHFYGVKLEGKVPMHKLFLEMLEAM
Assay: TR-FRET assay (disruption of co-activator peptide binding)
Type: biochemical
Conditions: 6His-tagged ERR1 LBD, GST-hSRC2 co-activator polypeptide; average of 3 independent experiments
Protocol: Time-Resolved Fluorescence Resonance Energy Transfer (TR-FRET) experiments were performed to examine the functional response of ERR1 (also known as ERR-α or ERR-1) ligands. The TR-FRET assay described herein relied on the conformation of ERR1 for binding to a co-activator peptide: when a test compound binds to ERR1 and alters its conformation, it can disrupt the binding of the co-activator peptide. The components of this homogeneous secondary assay included: the ^6His-tagged-ERR1LBD, a GST-labeled-hSRC2 co-activator polypeptide and a fluorescent donor/acceptor pair from CIS bio international htrf/bioassays (Bedford, Mass.) using both an α-GST Europium Cryptate (Eu) label and an α^6His-XL665 (allophycocyanin) fluorophore.
For TR-FRET measurements, the reaction was buffered in 25 mM Tris pH 8, 2.5 mM Hepes, 20 mM KCl, 1 mM DTT, and 0.05 mg/mL BSA (-lipids). The final concentrations of reagents were 6 nM of ERR1LBD, 6 nM GST-SRC-2 peptide, 30 nM Eu cryptate, and 7.5 nM XL665. Reactions were allowed to reach equilibrium at 25° C. for 4-18 hours before collecting data on the Analyst from LJL Biosystems (Molecular Devices Sunnyvale, Calif.). As a time-resolved method, the samples were excited at […] and emission was collected for 1 ms at both 615 and 665 nm with delays of 400 and 75 μs, respectively. Dose response curves were fitted using a hyperbolic equation and the data reported is the average of 3 independent experiments.

Compound	pEC50
CN1CCN(C2=NC(=O)/C(=C/c3ccc4c(cnn4Cc4ccc(C(F)(F)F)cc4C(F)(F)F)c3)S2)C[C@@H]1CO [Example 195, 5-({1-[2,4-Bis(trifluoromethyl)benzyl]-1H-indazol-5-yl}methylidene)-2-[3-(R)-(hydroxymethyl)-4-methylpiperazin-1-yl]-1,3-thiazol-4(5H)-one]	7.70
O=C1N=C(N2CC(N3CCOCC3)C2)S/C1=C\c1ccc2c(cnn2Cc2ccc(C(F)(F)F)cc2C(F)(F)F)c1 [Example 204, 5-({1-[2,4-Bis(trifluoromethyl)benzyl]-1H-indazol-5-yl}methylidene)-2-(3-morpholin-4-ylazetidin-1-yl)-1,3-thiazol-4(5H)-one]	7.38
COCC(=O)N1CCN(C2=NC(=O)/C(=C/c3ccc4c(cnn4Cc4ccc(Cl)cc4C(F)(F)F)c3)S2)[C@H](C)C1 [Example 90, 5-[1-(4-Chloro-2-trifluoromethyl-benzyl)-1H-indazol-5-ylmethylene]-2-[4-(2-methoxy-acetyl)-2-(R)-methyl-piperazin-1-yl]-thiazol-4-one]	8.47
CC(=O)NC1CCN(C2=NC(=O)/C(=C/c3ccc4c(cnn4Cc4ccc(C(F)(F)F)cc4C(F)(F)F)c3)S2)CC1 [Example 108, N-(1-{5-[1-(2,4-Bis-trifluoromethyl-benzyl)-1H-indazol-5-ylmethylene]-4-oxo-4,5-dihydro-thiazol-2-yl}-piperidin-4-yl)-acetamide]	7.52
O=C1N=C(N2CCNCC2)S/C1=C\c1ccc2c(cnn2Cc2ccc(C(F)(F)F)cc2C(F)(F)F)c1 [Compound 7, 5-[1-(2,4-Bis-trifluoromethyl-benzyl)-1H-indazol-5-ylmethylene]-2-piperazin-1-yl-thiazol-4-one]	7.42
CN1CCN(C2=NC(=O)/C(=C/c3ccc4c(cnn4Cc4ccc(Cl)cc4Cl)c3)S2)CC1 [Example 25, 5-[1-(2,4-Dichloro-benzyl)-1H-indazol-5-ylmethylene]-2-(4-methyl-piperazin-1-yl)-thiazol-4-one]	7.17
CN1CCN(C2=NC(=O)/C(=C/c3ccc4c(cnn4Cc4ccc(Cl)cc4C(F)(F)F)c3)S2)[C@@H](CO)C1 [Example 254, 5-({1-[4-Chloro-2-(trifluoromethyl)benzyl]-1H-indazol-5-yl}methylidene)-2-[(2R)-2-(hydroxymethyl)-4-methylpiperazin-1-yl]-1,3-thiazol-4(5H)-one]	8.19
CCOC(=O)C1(N)CCN(C2=NC(=O)/C(=C/c3ccc4c(cnn4Cc4ccc(Cl)cc4C(F)(F)F)c3)S2)CC1 [Example 156, 4-Amino-1-{5-[1-(4-chloro-2-trifluoromethyl-benzyl)-1H-indazol-5-ylmethylene]-4-oxo-4,5-dihydro-thiazol-2-yl}-piperidine-4-carboxylic acid ethyl ester]	7.24
NC1CN(C2=NC(=O)/C(=C/c3ccc4c(cnn4Cc4ccc(Cl)cc4C4CC4)c3)S2)C1 [Example 92, 2-(3-Amino-azetidin-1-yl)-5-[1-(4-chloro-2-cyclopropyl-benzyl)-1H-indazol-5-ylmethylene]-thiazol-4-one]	7.31
CN1CCN(C2=NC(=O)/C(=C/c3ccc4c(cnn4Cc4ccc(O)cc4C(F)(F)F)c3)S2)CC1 [Compound 22, 5-[1-(4-Hydroxy-2-trifluoromethyl-benzyl)-1H-indazol-5-ylmethylene]-2-(4-methyl-piperazin-1-yl)-thiazol-4-one]	7.94
O=C1N[C@@H]2C[C@H](CO1)N(C1=NC(=O)/C(=C/c3ccc4c(cnn4Cc4ccc(C(F)(F)F)cc4C(F)(F)F)c3)S1)C2 [Example 214, (1R,6R)-7-[5-({1-[2,4-Bis(trifluoromethyl)benzyl]-1H-indazol-5-yl}methylidene)-4-oxo-4,5-dihydro-1,3-thiazol-2-yl]-4-oxa-2,7-diazabicyclo[4.2.1]nonan-3-one]	8.10
COc1ccc(Cn2ncc3cc(/C=C4\SC(N5CC[C@H]5C(=O)O)=NC4=O)ccc32)c(C(F)(F)F)c1 [Example 50, 1-{5-[1-(4-Methoxy-2-trifluoromethyl-benzyl)-1H-indazol-5-ylmethylene]-4-oxo-4,5-dihydro-thiazol-2-yl}-azetidine-2-(S)-carboxylic acid]	8.11
COC[C@H]1CN(C2=NC(=O)/C(=C/c3ccc4c(cnn4Cc4ccc(C(F)(F)F)cc4C(F)(F)F)c3)S2)CCN1 [Example 210, 5-({1-[2,4-Bis(trifluoromethyl)benzyl]-1H-indazol-5-yl}methylidene)-2-[3-(R)-(methoxymethyl)piperazin-1-yl]-1,3-thiazol-4(5H)-one]	7.61
CC[C@H]1CN(C)CCN1C1=NC(=O)/C(=C/c2ccc3c(cnn3Cc3ccc(Cl)cc3C(F)(F)F)c2)S1 [Example 256, 5-({1-[4-Chloro-2-(trifluoromethyl)benzyl]-1H-indazol-5-yl}methylidene)-2-((2S)-2-ethyl-4-methylpiperazin-1-yl)-1,3-thiazol-4(5H)-one]	7.31
CN(C)[C@@H]1CCN(C2=NC(=O)/C(=C/c3ccc4c(cnn4Cc4ccc(C(F)(F)F)cc4C(F)(F)F)c3)S2)C1 [Example 252, 5-({1-[2,4-Bis(trifluoromethyl)benzyl]-1H-indazol-5-yl}methylidene)-2-[(3R)-3-(dimethylamino)pyrrolidin-1-yl]-1,3-thiazol-4(5H)-one]	6.72
O=C1N=C(N2CCOC[C@@H]2C(=O)O)S/C1=C\c1ccc2c(cnn2Cc2ccc(Cl)cc2C(F)(F)F)c1 [Example 194, 4-[5-({1-[4-Chloro-2-(trifluoromethyl)benzyl]-1H-indazol-5-yl}methylidene)-4-oxo-4,5-dihydro-1,3-thiazol-2-yl]morpholine-3-(R)-carboxylic acid]	7.63
O=C1N=C(N2C[C@@H]3C[C@H]2CN3CCO)S/C1=C\c1ccc2c(cnn2Cc2ccc(Cl)cc2C(F)(F)F)c1 [Example 80, 5-[1-(4-Chloro-2-trifluoromethyl-benzyl)-1H-indazol-5-ylmethylene]-2-[5-(2-hydroxy-ethyl)-2S,5S-diaza-bicyclo[2.2.1]hept-2-yl]-thiazol-4-one]	8.24
O=C1N=C(N2CCO[C@@H](CO)C2)S/C1=C\c1ccc2c(cnn2Cc2ccc(C(F)(F)F)cc2C(F)(F)F)c1 [Example 172, 5-[1-(2,4-Bis-trifluoromethyl-benzyl)-1H-indazol-5-ylmethylene]-2(R)-(2-hydroxymethyl-morpholin-4-yl)-thiazol-4-one]	7.85
CN1CCN(C2=NC(=O)/C(=C/c3ccc4c(cnn4Cc4ccc(C(F)(F)F)cc4C(F)(F)F)c3)S2)CC1 [Compound 2, 5-[1-(2,4-Bis-trifluoromethyl-benzyl)-1H-indazol-5-ylmethylene]-2-(4-methyl-piperazin-1-yl)-thiazol-4-one]	8.14
CCC1(O)CCCN(C2=NC(=O)/C(=C/c3ccc4c(cnn4Cc4ccc(Cl)cc4C(F)(F)F)c3)S2)C1 (stereo not shown) [Example 165, 5-[1-(4-Chloro-2-trifluoromethyl-benzyl)-1H-indazol-5-ylmethylene]-2-(3-ethyl-3-hydroxy-piperidin-1-yl)-thiazol-4-one]	7.74
O=C1N=C(N2C[C@H](O)[C@@H](N3CCOCC3)C2)S/C1=C\c1ccc2c(cnn2Cc2ccc(C(F)(F)F)cc2C(F)(F)F)c1 [Example 225, (5Z)-5-({1-[2,4-Bis(trifluoromethyl)benzyl]-1H-indazol-5-yl}methylidene)-2-[(3S,4S)-3-hydroxy-4-morpholin-4-ylpyrrolidin-1-yl]-1,3-thiazol-4(5H)-one]	7.74
CCNC(=O)NC1CCN(C2=NC(=O)/C(=C/c3ccc4c(cnn4Cc4ccc(C(F)(F)F)cc4C(F)(F)F)c3)S2)CC1 [Example 160, 1-(1-{5-[1-(2,4-Bis-trifluoromethyl-benzyl)-1H-indazol-5-ylmethylene]-4-oxo-4,5-dihydro-thiazol-2-yl}-piperidin-4-yl)-3-ethyl-urea]	7.66
CN1CCN(C2=NC(=O)/C(=C/c3ccc4c(cnn4Cc4ccc(Cl)cc4C(F)(F)F)c3)S2)CC1 [Compound 8, 5-[1-(4-Chloro-2-trifluoromethyl-benzyl)-1H-indazol-5-ylmethylene]-2-(4-methyl-piperazin-1-yl)-thiazol-4-one]	8.15
Cc1nn(Cc2ccc(C(F)(F)F)cc2C(F)(F)F)c2ccc(/C=C3\SC(N4CCN[C@@H](CO)C4)=NC3=O)cc12 [Example 182, 5-[1-(2,4-Bis-trifluoromethyl-benzyl)-3-methyl-1H-indazol-5-ylmethylene]-2-(3-(R)-hydroxymethyl-piperazin-1-yl)-thiazol-4-one]	7.97
O=C1N=C(N2CCC(C(=O)NS(=O)(=O)N3CCCC3)CC2)S/C1=C\c1ccc2c(cnn2Cc2ccc(C(F)(F)F)cc2C(F)(F)F)c1 [Example 173, Pyrrolidine-1-sulfonic acid (1-{5-[1-(2,4-bis-trifluoromethyl-benzyl)-1H-indazol-5-ylmethylene]-4-oxo-4,5-dihydro-thiazol-2-yl}-piperidine-4-carbonyl)-amide]	7.15
